# Laboratory results: patent publication US6693132B2, “Methods for using alkanoyloxymethyl esters” (Beacon Laboratories, Inc., priority 2000, dated 2004)
# Key:
# [1] = test system: PC-3 prostate cancer cells; experiment: EDR anti-proliferation assay (3H-thymidine incorporation, soft agar) against PC-3 prostate cancer cells; format: cell-based; settings: Homo sapiens; PC-3 cells in soft agar, five days incubation, 3H-TdR incorporation
# Text: The PC-3 cell line was maintained in RPMI supplemented with 10% fetal calf serum and antibiotics. […] Cells were suspended in 0.12% soft agar in complete medium and plated (2,000 cells per well, as determined by preliminary experiments) in different drug concentrations onto a 0.4% agarose underlayer in 24-well plates. Plating cells on agarose underlayers supports the proliferation only of the transformed cells, ensuring that the growth signal stems from the malignant component of the tumor.
# All compounds were dissolved in DMSO to 200× stock solutions. Stock solutions were diluted to 20× working solutions using the tissue culture medium, serially diluted and added to the 24-well plates. […] No significant changes in pH of the culture medium were observed under the above conditions. Diluent control wells contained PC3 cells treated with DMSO, at the dilutions used for appropriate drug treatment. All experimental points were represented by two separate wells (duplicates). Positive controls were determined using at least two wells treated with an extremely high dose of cisplatin, an anti-cancer agent. Four wells containing tumor cells that were not treated with drugs served as negative controls in each experiment.
# Cells were incubated with drugs under standard culture conditions for five days. Cultures were pulsed with tritiated thymidine (^3H-TdR, New Life Science Products, Boston, Mass.) at 5 μCi per well for the last 48 hours of the culture period. Cell culture plates were then heated to 90° C. to liquefy the agarose, and cells were harvested onto glass fiber filters, which were then placed into counting vials containing liquid scintillation fluid. The radioactivity trapped on the filters was counted with a Beckman scintillation counter. The fraction of surviving cells was determined by comparing ^3H-TdR incorporation in treated (experimental points) and untreated (negative control) wells. […] IC50 values were determined using the approximated sigmoidal curves and expressed as μM.
# [2] = target: histone deacetylase isolated from rat liver; experiment: Histone deacetylase inhibition assay with fluorescent substrate MAL, HPLC determination; format: biochemical; settings: 37° C. 90 minutes, IC50 from five dilutions, read-out: HDAC
# Experimental: The inhibition of histone deacetylase was determined according to methods generally described by Hoffmann et al., Nucleic Acids Res. 27:2057-8 (1999). The histone deacetylase was isolated from rat liver as previously described by M. Tung. The compounds tested were initially dissolved in either ethanol or in DMSO to provide working stock solutions.
# The assay was performed in a final volume of 120 μL total, consisting of 100 μL of 15 μM tris-HCl buffer (pH 7.9) also containing 0.25 μM EDTA, 10 μM NaCl, 10% glycerol, 10 μM mercaptoethanol and the enzyme. The assay was initiated upon the addition of 10 ml of one of the compounds being tested, followed by the addition of the fluorescence-labeled lysine substrate to each assay tube in an ice bath for 15 minutes. The tubes were transferred to a water bath at 37° C. for an additional 90 minutes.
# The fluorescent substrate described by Hoffmann was modified to increase the precision and accuracy by the addition of an internal standard for the HPLC determination. The synthetic substrate, MAL is N-(4-methyl-7-coumarinyl)-N-α(tert-butyloxy-carbonyl)-N-Ω-acetyllysineamide.
# An initial assay was performed to determine the range of activity of each compound. […] All values are the result of two or more experiments.
IC50 [1] [µM],IC50 [2] [µM],Compound
30,590,"CCC(=O)OCOC(=O)CC [POMP, propionoyloxymethyl propionate]"
0.005,–,CC(/C=C/C(=O)NO)=C\[C@@H](C)C(=O)c1ccc(N(C)C)cc1 [trichostatin]
> 2000,4500,CCCC(=O)O [butyric acid]
